Source: US4206217A, “3-[4-(1,3-Diazacycloalken-2-yl)-phenyl]-1,2-benzisothiazoles, their manufacture, and drugs containing these compounds” (BASF Aktiengesellschaft, priority 1977, dated 1980)
Where a name gives a salt, the structure may show the parent alone.

Legend:
isolated auricle = assay: Stimulation time/tension relationship (isolated auricle)
Description: In test models used in respect of the antiarrhythmic effect, the following findings were obtained: Stimulation time/tension relationship (isolated auricle): […]

[1] = test system: aconitine-induced arrhythmia; assay: animal or person; type: in vivo, rat (Sprague Dawley); details: for ED50: Rattus norvegicus, po, read-out: Antiarrhythmic effect: effective dose ED 50%; for Maximum effect: Δ% (increase in duration of aconitine infusion): effect of the maximum nontoxic dose (215 for Examples 2 and 3; 681 for procainamide); for Maximum effect: Δ% (increase in duration of aconitine infusion) / Antiarrhythmic effect: R.E. (relative effect) / Maximum effect: R.M.E. (relative maximum effectiveness) / Effect at the maximum dose, higher than that of procainamide / Antiarrhythmic activity greater than that of procainamide: rat, oral; for Antiarrhythmic effect: R.E. (relative effect) / Maximum effect: R.M.E. (relative maximum effectiveness): procainamide = 1.00; for Antiarrhythmic effect: R.E. (relative effect): effective dose; for Effect at the maximum dose, higher than that of procainamide / Antiarrhythmic activity greater than that of procainamide: versus procainamide
Description: The antiarrhythmic activity of the compounds was determined by orally administering these to rats (Sprague Dawley, weight: 180-240 g) 45 minutes before the start of narcosis (100 mg/kg of thiobutabarbital, administered intraperitoneally).
The arrhythmogenous substance used was aconitine, administered by intravenous infusion (at the rate of 0.005 mg/kg.minute) 60 minutes after administration of the compound of the invention.
For a quantitative evaluation of the linear relation between the logarithm of the dose (mg/kg) of the test substances and the relative increase in the duration of infusion of aconitine (Δ%), the dose which increases the duration of infusion by 50% (ED 50%) was determined.

in vivo = details: mouse, in vivo; for LD50 at 168 h: ip
Description: (§1) The acute toxicity was determined on groups of 10 or 20 female Swiss mice weighing 20-26 g, using intraperitoneal administration. The LD 50 was calculated (Probit analysis) as the dose following which 50% of the animals died within 7 days.

female Swiss mice = assay: in vivo; details: versus procainamide
Description: as §1

[2] = test system: ventricular fibrillation threshold; assay: Ventricular fibrillation threshold in guinea pigs; type: in vivo, guinea pig; details: intravenous administration
Description: Ventricular fibrillation threshold in guinea pigs:

| SMILES | Stimulation time/tension relationship, effect relative to quinidine (isolated auricle) | ED50 [1] [mg/kg] | Maximum effect: Δ% (increase in duration of aconitine infusion) [1] [%] | Antiarrhythmic effect: R.E. (relative effect) [1] | Maximum effect: R.M.E. (relative maximum effectiveness) [1] | Effect at the maximum dose, higher than that of procainamide [1] [%] | Antiarrhythmic activity greater than that of procainamide [1] | selectivity ratio (in vivo) | LD50 at 168 h (in vivo) [mg/kg] | Therapeutic range (LD 50 / ED 50%) greater than for procainamide (female Swiss mice) [times] | Ventricular fibrillation threshold, effect relative to quinidine [2] |
| --- | --- | --- | --- | --- | --- | --- | --- | --- | --- | --- | --- |
| CC1CN=C(c2ccc(-c3nsc4ccccc34)cc2)N1 (stereo not drawn) [Example 3, 3-[4-(Methylimidazolin-2-yl)-phenyl]-1,2-benzisothiazole hydrochloride] | 1.5 times the effect of quinidine | 32.7 | 233 | 4.80 | 1.73 | 73 | about 5 times | 2.76 | 90.5 | 2.8 | – |
| c1ccc2c(-c3ccc(C4=NCCCN4)cc3)nsc2c1 [Example 2, 3-[4-(Tetrahydropyrimidin-2-yl)-phenyl]-1,2-benzisothiazole hydrochloride] | 1.24 times the effect of quinidine | 31.2 | 289 | 5.03 | 2.14 | 114 | about 5 times | 4.03 | 126 | 4 | 1.8 times the effect of quinidine |
| CCN(CC)CCNC(=O)c1ccc(N)cc1 [Procainamide, procainamide, reference compound] | – | 157 | 135 | – | – | – | – | – | 227 | – | – |
